How the values were obtained:
[1] = system: Sprague Dawley rat hippocampal slices; assay: Ex vivo electrophysiology: paired-pulse ratio (short-term plasticity), CA1 with Schaffer collateral stimulation; format: cell-based; conditions: 10 nM and 100 nM; interstimulus intervals 50-400 ms; vs vehicle 0.01% DMSO
Protocol: Response is Stratum radiatum of area CA1 of the hippocampus with Schaffer collateral stimulation. Statistical differences correspond to the ones observed between Compound 1 10 nM and Vehicle groups.
Statistical differences correspond to the ones observed between Compound 1 100 nM and Vehicle groups.
(§1) The effect of compound 1 to enhance mEPSPs may be dependent on the influx of extracellular calcium.

[2] = system: adult subjects with major depressive disorder (MDD); assay: Phase 2 clinical trial in MDD: MADRS Item #6 Concentration Difficulties; format: in vivo, human; design: key to MADRS Item #6 Concentration Difficulty score, Median / MADRS Item #6 Concentration Difficulty score, Min / MADRS Item #6 Concentration Difficulty score, Max: 0 = no concentration difficulty, 6 = unable to read/converse; key to MADRS Item #6 Change from Baseline, Median / MADRS Item #6 Change from Baseline, Max: change from baseline on 0–6 MADRS item scale; conditions: for MADRS Item #6 Change from Baseline, Max / MADRS Item #6 Change from Baseline, Mean (SD) / MADRS Item #6 Change from Baseline, Median / MADRS Item #6 Change from Baseline, Min / MADRS Item #6 Concentration Difficulty score, Max / MADRS Item #6 Concentration Difficulty score, Mean (SD) / MADRS Item #6 Concentration Difficulty score, Median / MADRS Item #6 Concentration Difficulty score, Min / MADRS Item #6 Change from Baseline, LSM Difference (95% CI) SP-624 vs Placebo: mITT, Females; for MADRS Item #6 Change from Baseline, LSM Difference (95% CI) SP-624 vs Placebo: MMRM
Protocol: A Phase 2, multicenter, double-blind, randomized, placebo-controlled study of the safety and efficacy of SP-624 in the treatment of adult subjects with major depressive disorder (MDD) as defined by the Diagnostic and Statistical Manual of Mental Disorders, Fifth Edition (DSM-5) was carried out. Following the successful completion of a Screening Phase, subjects were randomized to one of two treatment groups in a 1:1 ratio and received Compound 1 (SP-624) or placebo over a treatment period of four weeks (Treatment Group #1: SP-624 20 mg/day; Treatment Group #2: Placebo).
Prior to initiating the 4-week treatment period, subjects completed a Screening/Baseline period of up to 28 days, during which time all screening assessments were performed, and any current depression medications discontinued. All screening assessments were completed before discontinuing any current depression medications. Subjects returned for a Baseline Visit to complete efficacy and safety assessments. During the treatment period, subjects returned to the investigative site to complete efficacy and safety assessments at the end of Weeks 1, 2, 3, and 4. After the final dose of study drug, subjects completed a follow-up period of two weeks and returned at the end of Weeks 5 and 6. Subjects may be treated with anti-depressant medications according to physician recommendations after completion of the Week 5 Visit.
Each dose of Compound 1 was supplied as two capsules, each containing 10 mg of active pharmaceutical ingredient (API). Matching placebo capsules identical in shape and color to the active capsules were used.
The third cognitive function measurement is MADRS Item #6 Concentration Difficulties (representing difficulties in collecting one's thoughts mounting to incapacitating lack of concentration, rated according to intensity, frequency, and degree of incapacity produced). The answer scale is: 0—No difficulties in concentration; 1—blank; 2—Occasional difficulties in collecting one's thoughts; 3—blank; 4—Difficulties in concentrating and sustaining thought which reduces ability to read or hold a conversation; 5—blank; 6—Unable to read or converse without great difficulty.

[3] = system: Sprague Dawley rat hippocampal slices; assay: Ex vivo electrophysiology: short-lasting long-term potentiation (S-LTP) at hippocampal CA1 synapses; format: cell-based; conditions: 10 nM; single 1-sec train of 100-Hz stimulation
Text: Time-point 0 represents delivery of HFS. Slopes of fEPSP are normalized to baseline and plotted against time.
as §1

[4] = system: Sprague Dawley rat hippocampal slices; assay: Ex vivo electrophysiology in rat hippocampal slices: mEPSP frequency; format: cell-based
Text: as §1

[5] = Week 5 (1-week after the last dose), 20 mg/day for four weeks

COC1=CC(=O)C[C@@H](C)[C@]12Oc1c(Cl)c(-c3nnc(C)o3)cc(OC)c1C2=O [Compound 1, (2S,6′R)-7-Chloro-2′,4-dimethoxy-6′-methyl-6-(5-methyl-1,3,4-oxadiazol-2-yl)-3H-spiro[1-benzofuran-2,1′-cyclohex[2]ene]-3,4′-dione]
short-term plasticity (paired-pulse ratio) [1]: enhanced short-term plasticity | MADRS Item #6 Change from Baseline, Max ([2]; Week 1, 20 mg/day): 1 | MADRS Item #6 Change from Baseline, Mean (SD) ([2]; Week 1, 20 mg/day): −0.7 (1.27) | MADRS Item #6 Change from Baseline, Median ([2]; Week 1, 20 mg/day): 0 | MADRS Item #6 Change from Baseline, Min ([2]; Week 1, 20 mg/day): −5 | MADRS Item #6 Concentration Difficulty score, Max ([2]; Week 1, 20 mg/day): 6 | MADRS Item #6 Concentration Difficulty score, Mean (SD) ([2]; Week 1, 20 mg/day): 3.0 (1.48) | MADRS Item #6 Concentration Difficulty score, Median ([2]; Week 1, 20 mg/day): 4 | MADRS Item #6 Concentration Difficulty score, Min ([2]; Week 1, 20 mg/day): 0 | MADRS Item #6 Change from Baseline, LSM Difference (95% CI) SP-624 vs Placebo ([2]; Week 1, 20 mg/day, P-value 0.339): −0.2 (−0.5, 0.2) | MADRS Item #6 Change from Baseline, Max ([2]; Week 2, 20 mg/day): 3 | MADRS Item #6 Change from Baseline, Mean (SD) ([2]; Week 2, 20 mg/day): −0.7 (1.27) | MADRS Item #6 Change from Baseline, Median ([2]; Week 2, 20 mg/day): 0 | MADRS Item #6 Change from Baseline, Min ([2]; Week 2, 20 mg/day): −4 | MADRS Item #6 Concentration Difficulty score, Max ([2]; Week 2, 20 mg/day): 5 | MADRS Item #6 Concentration Difficulty score, Mean (SD) ([2]; Week 2, 20 mg/day): 3.0 (1.37) | MADRS Item #6 Concentration Difficulty score, Median ([2]; Week 2, 20 mg/day): 3 | MADRS Item #6 Concentration Difficulty score, Min ([2]; Week 2, 20 mg/day): 0 | MADRS Item #6 Change from Baseline, LSM Difference (95% CI) SP-624 vs Placebo ([2]; Week 2, 20 mg/day, P-value 0.753): 0.1 (−0.3, 0.4) | MADRS Item #6 Change from Baseline, Max ([2]; Week 3, 20 mg/day): 0 | MADRS Item #6 Change from Baseline, Mean (SD) ([2]; Week 3, 20 mg/day): −1.2 (1.40) | MADRS Item #6 Change from Baseline, Median ([2]; Week 3, 20 mg/day): −1 | MADRS Item #6 Change from Baseline, Min ([2]; Week 3, 20 mg/day): −5 | MADRS Item #6 Concentration Difficulty score, Max ([2]; Week 3, 20 mg/day): 4 | MADRS Item #6 Concentration Difficulty score, Mean (SD) ([2]; Week 3, 20 mg/day): 2.6 (1.58) | MADRS Item #6 Concentration Difficulty score, Median ([2]; Week 3, 20 mg/day): 3 | MADRS Item #6 Concentration Difficulty score, Min ([2]; Week 3, 20 mg/day): 0 | MADRS Item #6 Change from Baseline, LSM Difference (95% CI) SP-624 vs Placebo ([2]; Week 3, 20 mg/day, P-value 0.214): −0.3 (−0.7, 0.2) | MADRS Item #6 Change from Baseline, Max ([2]; Week 4, 20 mg/day): 1 | MADRS Item #6 Change from Baseline, Mean (SD) ([2]; Week 4, 20 mg/day): −1.2 (1.51) | MADRS Item #6 Change from Baseline, Median ([2]; Week 4, 20 mg/day): −1 | MADRS Item #6 Change from Baseline, Min ([2]; Week 4, 20 mg/day): −4 | MADRS Item #6 Concentration Difficulty score, Max ([2]; Week 4, 20 mg/day): 5 | MADRS Item #6 Concentration Difficulty score, Mean (SD) ([2]; Week 4, 20 mg/day): 2.5 (1.67) | MADRS Item #6 Concentration Difficulty score, Median ([2]; Week 4, 20 mg/day): 3 | MADRS Item #6 Concentration Difficulty score, Min ([2]; Week 4, 20 mg/day): 0 | MADRS Item #6 Change from Baseline, LSM Difference (95% CI) SP-624 vs Placebo ([2]; Week 4, 20 mg/day, P-value 0.144): −0.3 (−0.8, 0.1) | MADRS Item #6 Change from Baseline, Max [2, 5]: 1 | MADRS Item #6 Change from Baseline, Mean (SD) [2, 5]: −1.3 (1.51) | MADRS Item #6 Change from Baseline, Median [2, 5]: −1 | MADRS Item #6 Change from Baseline, Min [2, 5]: −5 | MADRS Item #6 Concentration Difficulty score, Max [2, 5]: 5 | MADRS Item #6 Concentration Difficulty score, Mean (SD) [2, 5]: 2.4 (1.63) | MADRS Item #6 Concentration Difficulty score, Median [2, 5]: 3 | MADRS Item #6 Concentration Difficulty score, Min [2, 5]: 0 | MADRS Item #6 Change from Baseline, LSM Difference (95% CI) SP-624 vs Placebo ([2]; Week 5 (1-week after the last dose), 20 mg/day for four weeks, P-value 0.007): −0.6 (−1.1, −0.2) | MADRS Item #6 Concentration Difficulties, improvement in score vs placebo ([2]; all measurement times through week 5, 20 mg/day): greater improvement in score | short-lasting long-term potentiation (S-LTP) [3]: tended to increase | frequency of miniature excitatory post-synaptic potentials (mEPSPs) in the hippocampus [4]: increase the frequency
